From DBAASP
≈ marks a conversion by molar mass, not a printed value.

What was measured:
Experiment in all cases: ≥ marks a high value that may be exact or a test limit, other limits are often not marked, values filed in µg/mL are converted to µM
[1] = system: Bacillus subtilis ATCC 6633
[2] = system: Staphylococcus aureus ATCC 25923
[3] = system: Pseudomonas aeruginosa ATCC 27853
[4] = system: Escherichia coli ATCC 25922
[5] = system: Enterococcus faecalis ATCC 29212
[6] = system: Pseudomonas aeruginosa ATCC 9027
[7] = system: Staphylococcus aureus ATCC 6538
[8] = system: Candida albicans ATCC 90028
[9] = system: Staphylococcus aureus ATCC 29213
[10] = system: Staphylococcus aureus ATCC 43300
[11] = system: Staphylococcus epidermidis ATCC 12228
Pseudomonas aeruginosa = system: Pseudomonas aeruginosa
Escherichia coli = system: Escherichia coli
Staphylococcus aureus = system: Staphylococcus aureus

| Structure (SMILES) | MIC [4] [µM] | MIC [6] [µM] | MIC [7] [µM] | other results |
| --- | --- | --- | --- | --- |
| CC(C)C[C@H](NC(=O)[C@@H]1CSSC[C@H](NC(=O)CNC(=O)[C@H](CCCN=C(N)N)NC(=O)[C@H](Cc2ccccc2)NC(=O)[C@H](C)NC(=O)[C@H](C)N)C(=O)N[C@@H](Cc2c[nH]c3ccccc23)C(=O)N[C@@H]([C@@H](C)O)C(=O)N[C@@H](CCCCN)C(=O)N[C@@H](CC(N)=O)C(=O)N[C@@H](Cc2ccc(O)cc2)C(=O)N[C@@H](CO)C(=O)N2CCC[C@H]2C(=O)N[C@@H](CCCCN)C(=O)N2CCC[C@H]2C(=O)N1)C(=O)O [AAFRGCWTKNYSPKPCL] |  |  |  | MIC [1]: 25.8 µM (≈ 50.1 µg/mL); MIC [2]: 51.5 µM (≈ 99.9 µg/mL) |
| CC(C)C[C@H](NC(=O)[C@H](CC(C)C)NC(=O)[C@H](CCCCN)NC(=O)[C@H](CCCCN)NC(=O)[C@H](C)NC(=O)[C@H](CC(C)C)NC(=O)[C@H](CCCCN)NC(=O)[C@H](CCCCN)NC(=O)[C@H](C)NC(=O)[C@@H](N)Cc1ccccc1)C(N)=O [FAKKLAKKLL] |  | > 172 | > 172 |  |
| CC(C)C[C@H](NC(=O)[C@H](C)NC(=O)[C@H](Cc1ccccc1)NC(=O)[C@H](CCCCN)NC(=O)[C@H](CCCCN)NC(=O)[C@H](C)NC(=O)[C@H](CC(C)C)NC(=O)[C@H](CCCCN)NC(=O)[C@H](C)NC(=O)[C@H](Cc1ccccc1)NC(=O)[C@H](CC(C)C)NC(=O)[C@H](CCCCN)NC(=O)[C@H](C)NC(=O)[C@@H](N)Cc1ccccc1)C(N)=O [FAKLFAKLAKKFAL] |  | > 125 | 31.3 (≈ 50 µg/mL) |  |
| CC(C)C[C@H](NC(=O)[C@H](CC(C)C)NC(=O)[C@H](CCCCN)NC(=O)[C@H](CCCCN)NC(=O)[C@H](C)NC(=O)[C@H](CC(C)C)NC(=O)[C@H](CC(C)C)NC(=O)[C@H](CCCCN)NC(=O)[C@H](C)NC(=O)[C@@H](N)Cc1ccccc1)C(N)=O [FAKLLAKKLL] |  | 175 (≈ 200 µg/mL) | 87.4 (≈ 99.9 µg/mL) |  |
| CC(C)C[C@H](NC(=O)[C@H](CCCCN)NC(=O)[C@H](C)NC(=O)[C@H](CC(C)C)NC(=O)[C@H](CC(C)C)NC(=O)[C@H](CCCCN)NC(=O)[C@H](C)NC(=O)[C@@H](N)Cc1ccccc1)C(=O)N[C@@H](C)C(=O)N[C@@H](CCCCN)C(=O)N[C@@H](C)C(=O)N[C@@H](CCCCN)C(=O)NCC(N)=O [FAKLLAKLAKAKG] |  | > 147 | > 147 |  |
| CC(C)C[C@H](NC(=O)[C@H](CCCCN)NC(=O)[C@H](C)NC(=O)[C@H](CCCCN)NC(=O)[C@H](C)NC(=O)[C@H](CC(C)C)NC(=O)[C@H](CCCCN)NC(=O)[C@H](C)NC(=O)[C@H](CC(C)C)NC(=O)[C@H](CC(C)C)NC(=O)[C@H](CCCCN)NC(=O)[C@H](C)NC(=O)[C@@H](N)Cc1ccccc1)C(N)=O [FAKLLAKLAKAKL] |  | 35.3 (≈ 50 µg/mL) | 10.6 (≈ 15 µg/mL) |  |
| CC[C@H](C)[C@H](NC(=O)CN)C(=O)NCC(=O)N[C@@H](C)C(=O)N[C@H](C(=O)N[C@@H](CC(C)C)C(=O)N[C@@H](CCCCN)C(=O)N[C@H](C(=O)N[C@@H](CC(C)C)C(=O)N[C@H](C(=O)N[C@H](C(=O)NCC(=O)N[C@@H](CC(C)C)C(=O)N[C@@H](CS)C(=O)N[C@@H](C)C(=O)N[C@@H](CC(C)C)C(=O)N[C@H](C(=O)N[C@@H](CO)C(=O)N[C@@H](Cc1c[nH]c2ccccc12)C(=O)N[C@H](C(=O)N[C@@H](CCCCN)C(=O)N[C@@H](CCCN=C(N)N)C(=O)N[C@@H](CCCCN)C(=O)N[C@@H](CCCN=C(N)N)C(=O)N[C@@H](CCC(N)=O)C(=O)N[C@@H](CCC(N)=O)C(=O)O)[C@@H](C)CC)[C@@H](C)CC)[C@@H](C)O)[C@@H](C)O)C(C)C)C(C)C [GIGAVLKVLTTGLCALISWIKRKRQQ] | 62.5 (≈ 178 µg/mL) |  |  | MIC [3]: 62.5 µM (≈ 178 µg/mL); MIC [9]: 62.5 µM (≈ 178 µg/mL); MIC [10]: 62.5 µM (≈ 178 µg/mL) |
| CC[C@H](C)[C@H](N)C(=O)N[C@H](C(=O)N[C@@H](CCCN=C(N)N)C(=O)N[C@H](C(=O)N[C@@H](C)C(=O)N[C@H](C(=O)N[C@@H](C)C(=O)N[C@@H](CC(C)C)C(=O)N[C@@H](CCCN=C(N)N)C(=O)N[C@@H](CCCN=C(N)N)C(=O)N[C@H](C(=O)N[C@@H](CCCN=C(N)N)C(N)=O)[C@@H](C)CC)C(C)C)C(C)C)C(C)C [IVRVAVALRRIR] |  |  |  | MIC (Pseudomonas aeruginosa): 51.3 µM (≈ 73 µg/mL) |
| CC(C)C[C@H](NC(=O)[C@H](CCCCN)NC(=O)CNC(=O)[C@H](C)NC(=O)[C@H](CC(C)C)NC(=O)[C@H](CCCCN)NC(=O)[C@H](C)NC(=O)[C@H](CC(C)C)NC(=O)[C@H](CCCCN)NC(=O)CNC(=O)[C@H](C)NC(=O)[C@H](Cc1c[nH]c2ccccc12)NC(=O)[C@H](CCCCN)NC(=O)[C@H](C)NC(=O)[C@H](CC(C)C)NC(=O)[C@H](CCCCN)NC(=O)CNC(=O)[C@H](C)NC(=O)[C@H](CC(C)C)NC(=O)[C@@H](N)CCCCN)C(=O)N[C@@H](C)C(N)=O [KLAGKLAKWAGKLAKLAGKLA] |  |  |  | MIC (Escherichia coli): 3.74 µM (≈ 8 µg/mL); MIC (Pseudomonas aeruginosa): 7.49 µM (≈ 16 µg/mL); MIC (Staphylococcus aureus): 3.74 µM (≈ 8 µg/mL) |
| CC(C)C[C@H](NC(=O)[C@H](CC(C)C)NC(=O)[C@H](CCCCN)NC(=O)[C@H](CCCCN)NC(=O)[C@H](C)NC(=O)[C@H](CC(C)C)NC(=O)[C@H](CCCCN)NC(=O)[C@H](C)NC(=O)[C@H](CC(C)C)NC(=O)[C@H](CC(C)C)NC(=O)[C@H](CCCCN)NC(=O)[C@H](C)NC(=O)[C@@H](N)C(C)C)C(N)=O [VAKLLAKLAKKLL] |  | 3.55 (≈ 5 µg/mL) | 3.55 (≈ 5 µg/mL) |  |

Second part, led by results:

| MIC [4] [µM] | Structure (SMILES) | MIC [6] [µM] | MIC [7] [µM] | other results |
| --- | --- | --- | --- | --- |
| 1.3 (≈ 3.9 µg/mL) | CC[C@H](C)[C@H](NC(=O)CNC(=O)[C@H](CCCCN)NC(=O)[C@H](CC(C)C)NC(=O)[C@H](CCSC)NC(=O)[C@H](CC(N)=O)NC(=O)[C@H](CCCCN)NC(=O)[C@H](Cc1c[nH]c2ccccc12)NC(=O)[C@H](CC(C)C)NC(=O)[C@H](C)N)C(=O)NCC(=O)N[C@@H](CCCCN)C(=O)N[C@@H](CC(C)C)C(=O)N[C@@H](C)C(=O)NCC(=O)N[C@@H](CCC(N)=O)C(=O)N[C@@H](C)C(=O)N[C@@H](C)C(=O)N[C@@H](CC(C)C)C(=O)NCC(=O)N[C@@H](C)C(=O)N[C@H](C(=O)N[C@@H](CCCCN)C(=O)N[C@H](C(=O)N[C@@H](CC(C)C)C(=O)N[C@H](C(=O)NCC(=O)N[C@@H](C)C(=O)N[C@@H](CCC(=O)O)C(=O)N[C@@H](CO)C(=O)O)C(C)C)[C@@H](C)O)C(C)C [ALWKNMLKGIGKLAGQAALGAVKTLVGAES] |  |  | MIC [2]: 2.7 µM (≈ 8.09 µg/mL); MIC [3]: 5.4 µM (≈ 16.2 µg/mL); MIC [5]: 22 µM (≈ 65.9 µg/mL) |
| > 160 | CC[C@H](C)[C@H](NC(=O)[C@@H]1CCCN1C(=O)[C@H](CC(C)C)NC(=O)[C@@H](N)Cc1ccccc1)C(=O)N[C@@H](CC(C)C)C(=O)NCC(=O)N[C@@H](CCCCN)C(=O)N[C@@H](CC(C)C)C(=O)N[C@@H](CC(C)C)C(=O)N[C@@H](CO)C(=O)NCC(=O)N[C@@H](Cc1ccccc1)C(=O)N[C@@H](CC(C)C)C(N)=O [FLPILGKLLSGFL] |  |  | MIC [2]: 10 µM (≈ 14.2 µg/mL); MIC [8]: ≥ 80 µM |
| 20 (≈ 50.1 µg/mL) | CC[C@H](C)[C@H](NC(=O)CNC(C)=O)C(=O)NCC(=O)N[C@@H](CCCCN)C(=O)N[C@@H](Cc1ccccc1)C(=O)N[C@@H](CC(C)C)C(=O)N[C@@H](Cc1cnc[nH]1)C(=O)N[C@@H](CO)C(=O)N[C@@H](C)C(=O)N[C@@H](CCCCN)C(=O)N[C@@H](CCCCN)C(=O)N[C@@H](Cc1ccccc1)C(=O)NCC(=O)N[C@@H](CCCCN)C(=O)N[C@@H](C)C(=O)N[C@@H](Cc1ccccc1)C(=O)N[C@H](C(=O)NCC(=O)N[C@@H](CCC(N)=O)C(=O)N[C@H](C(=O)N[C@@H](CCSC)C(=O)N[C@@H](CC(N)=O)C(=O)N[C@@H](CO)C(N)=O)[C@@H](C)CC)C(C)C [GIGKFLHSAKKFGKAFVGQIMNS] |  |  | MIC [11]: 20 µM (≈ 50.1 µg/mL) |
| 10 (≈ 27.7 µg/mL) | CC[C@H](C)[C@H](NC(=O)CN)C(=O)N[C@@H](CCCCN)C(=O)N[C@@H](CCCCN)C(=O)N[C@@H](Cc1c[nH]c2ccccc12)C(=O)N1CCC[C@H]1C(=O)N[C@@H](Cc1cnc[nH]1)C(=O)N[C@@H](CCCCN)C(=O)N1CCC[C@H]1C(=O)N[C@@H](CCCCN)C(=O)N[C@@H](CCCCN)C(=O)N[C@@H](Cc1ccccc1)C(=O)NCC(=O)N[C@@H](CCCCN)C(=O)N[C@@H](CCCCN)C(=O)N[C@@H](Cc1ccccc1)C(=O)N[C@H](C(=O)N[C@@H](CCCCN)C(=O)N[C@@H](CCCCN)C(=O)N[C@H](C(=O)N[C@@H](CCCCN)C(=O)N[C@@H](CCCCN)C(=O)N[C@@H](CO)C(N)=O)[C@@H](C)CC)C(C)C [GIKKWPHKPKKFGKKFVKKIKKS] |  |  | MIC [11]: 5 µM (≈ 13.8 µg/mL) |
| 75 (≈ 223 µg/mL) | CC[C@H](C)[C@H](NC(=O)CN)C(=O)N[C@@H](CCSC)C(=O)N[C@@H](CC(=O)O)C(=O)N[C@H](C(=O)N[C@H](C(=O)N[C@@H](CCCCN)C(=O)NCC(=O)N[C@@H](C)C(=O)N[C@@H](C)C(=O)N[C@@H](CCCCN)C(=O)N[C@@H](CC(=O)O)C(=O)N[C@@H](CC(C)C)C(=O)N[C@@H](C)C(=O)NCC(=O)N[C@@H](CCC(N)=O)C(=O)N[C@@H](CC(C)C)C(=O)N[C@@H](CC(C)C)C(=O)N[C@@H](CC(=O)O)C(=O)N[C@@H](CCCCN)C(=O)N[C@@H](CC(C)C)C(=O)N[C@@H](CCCCN)C(=O)N[C@H]1CSSC[C@@H](C(=O)O)NC(=O)[C@H](CCCCN)NC(=O)[C@H]([C@@H](C)O)NC(=O)[C@H]([C@@H](C)CC)NC(=O)[C@H](CCCCN)NC1=O)[C@@H](C)CC)[C@@H](C)O [GIMDTIKGAAKDLAGQLLDKLKCKITKC] |  |  | MIC [2]: > 150 µM; MIC [8]: ≥ 150 µM |
